We go through five compounds from US11440914B2, “Tricyclic amine compounds as CDK2 inhibitors” (Incyte Corporation, priority 2019, dated 2022).

Experiment [1] has as its system Rb phosphorylation at S780 in CCNE1-non-amplified cell lines (COV504 and OV56). Nature of the experiment: Western blot of Rb phosphorylation at S780 in CCNE1-non-amplified cell lines. The experiment is classed as cell-based, human. The following applies: various doses, 1 or 15 hours. How it is done:
(§1) The effect of CDK4/6-inhibition on Rb phosphorylation at S780 in CCNE1-amplified versus CCNE1-non-amplified cell lines was evaluated. […] One or 15 hours after treatment, the cells were harvested and total protein was extracted and analyzed by western blot (FIG. 8).
(§2) Whole cell extracts were prepared using RIPA buffer (Thermo Scientific, 89900) with a Halt Protease and Phosphatase Inhibitor Cocktail (Thermo Scientific, 78440). Protein concentration was quantified with a BCA Protein Assay Kit (Thermo Scientific, 23225) and […] of protein lysates were loaded for SDS-PAGE using precast gradient gels (Bio-Rad, Hercules, No. 456-1094). Samples were diluted in 5× Laemmli buffer (300 mM Tris-HCl pH 6.8, 10% SDS (w/v), 5% 2-mercaptoethanol, 25% glycerol (v/v), 0.1% bromophenol blue w/v) and boiled for 5 minutes. […] of proteins were separated by 8-15% SDS-PAGE and transferred onto polyvinylidene fluoride (PVDF) membranes. Unspecific binding sites on the PVDF membranes were blocked with 5% non-fat milk in TBST (20 mM Tris-HCl, pH 7.6, 137 mM NaCl, 1% Tween-20). […] Images were captured by Luminescence/Fluorescence Imaging System Odyssey CLx Imager (LI-COR).

Experiment [2] deals with Rb phosphorylated on serine 780 in CCNE1 amplified COV318 cells. Nature of the experiment: CDK2 pRb (S780) HTRF cellular assay. The experiment is classed as cell-based. The conditions noted are these: Homo sapiens, overnight treatment, read-out: IC50 in p-RB S780 HTRF cellular assay. As for the experimental part: CDK2 pRb ([…]) HTRF cellular assay enables the quantitative detection of Rb phosphorylated on […] in CCNE1 amplified COV318 cells. The assay comprised two antibodies: Europium cryptate labeled anti-Phospho-Rb […] antibody (donor) and d2 labeled anti-Rb antibody (acceptor). In brief, COV318 cells were seeded into the wells of 96-well plate at a density of 25,000 per well with 9-point, 3-fold serial diluted compounds and cultured overnight at 37 degree with 5% CO2. The final concentrations of compounds start from 3 μM. […] After 2 h of incubation at room temperature, HTRF signals were measured on the PHERAstar microplate reader (BMG Labtech), using 340 nm as excitation wavelength, a 620 nm filter for the Europium donor fluorescence, and a 665-nm filter for the acceptor fluorescence detection. HTRF signals were calculated as the HTRF ratio (ratio of fluorescence measured at 665 nm and 620 nm)×10000.

The subject of experiment [3] is CCNE1-amplified cell lines (OVCAR3, COV318). Description: Cell cycle analysis by FACS in CCNE1-amplified cell lines. Type of experiment: cell-based, human. The conditions noted are these: for percentage of S phase cells: 100 nM, 16 hours. How it is done: (§3) The effect of CDK4/6-inhibition in CCNE1-amplified versus CCNE1-non-amplified cell lines was evaluated.
(§4) A similar experiment was performed in a larger set of CCNE1-amplified cell lines (COV318 and OVCAR3) and CCNE1-non-amplified cell lines (COV504, OV56, and Igrov1) (FIG. 6).
To confirm the role of p16 in CDK2-sensitivity of CCNE-amplified cells, COV318 cells were treated with control or p16-specific siRNA.
(§5) Bulk DNA was stained with DAPI. Compound-treated and DMSO treated control cells were acquired with CytoFlex (Beckman Coulter) and were analyzed using the FlowJo software. For cell cycle analysis of cells with siRNA knockdown, 72 hours after siRNA transfection, cells exposed to […] for 3 hours before detection of Click-iT Alexa Fluor® 647 azide kit.

Experiment [4] concerns Rb phosphorylation at S780 in CCNE1-amplified cell lines (OVCAR3 and COV318). Description: Western blot of Rb phosphorylation at S780 in CCNE1-amplified cell lines. Type of experiment: cell-based, human. The conditions noted are these: various doses, 1 or 15 hours. How it is done:
as §1, §2

For experiment [5], the system named is CCNE1-non-amplified cell lines (COV504, OV56, Igrov1). Description: Cell cycle analysis by FACS in CCNE1-non-amplified cell lines. The experiment is classed as cell-based, human. How it is done: as §3, §4, §5
The target in experiment [6] is CDK2/Cyclin E1 (Homo sapiens (Human), UniProt P24941). Description: CDK2/Cyclin E1 HTRF enzyme activity assay. The experiment is classed as biochemical. The following applies: 1 mM ATP. As for the experimental part:
CDK2/Cyclin E1 enzyme activity assays utilize full-length human CDK2 co-expressed as N-terminal GST-tagged protein with FLAG-Cyclin E1 in a baculovirus expression system (Carna Product Number 04-165). Assays are conducted in white 384-well polystyrene plates in a final reaction volume of 8 μL. CDK2/Cyclin E1 (0.25 nM) is incubated with compounds (40 nL serially diluted in DMSO) in the presence of ATP (50 μM or 1 mM) and 50 nM ULight™-labeled eIF4E-binding protein 1 (THR37/46) peptide (PerkinElmer) in assay buffer (containing 50 mM HEPES pH 7.5, 1 mM EGTA, 10 mM MgCl2, 2 mM DTT, 0.05 mg/ml BSA, and 0.01% Tween 20) for 60 minutes at room temperature. The reactions are stopped by the addition of EDTA and Europium-labeled anti-phospho-4E-BP1 antibody (PerkinElmer), for a final concentration of 15 mM and 1.5 nM, respectively. HTRF signals are read after 1 hour at room temperature on a PHERAstar FS plate reader (BMG Labtech). Data is analyzed with IDBS XLFit and GraphPad Prism 5.0 software using a three or four parameter dose response curve to determine IC50 for each compound.

The structures appear in SMILES notation.

With `CC(=O)c1c(C)c2cnc(Nc3ccc(N4CCNCC4)cn3)nc2n(C2CCCC2)c1=O` [palbociclib], the “Rb phosphorylation at S780” value was “blocked Rb phosphorylation” in experiment [1] and “not in CCNE1-amplified cell lines” in experiment [4]. Moreover, in experiment [2], the IC50 was over 3 µM. Besides, the “percentage of cells at the S phase as compared to DMSO” value in experiment [3] (COV318 and OVCAR3, 16 hours after treatment) is reported as “not significantly different”; in experiment [5] (COV504, OV56, Igrov1, 16 hours after treatment) it was “decreased in CCNE1-non-amplified cell lines in a dose-dependent fashion”. In experiment [5] (COV504 cells, 16 hours, increasing concentrations), the “proliferation (cell cycle analysis by FACS)” value is reported as “dose-dependent inhibition of the proliferation”.
On to `C[C@@]1(O)CCC[C@H]1n1c(=O)ccc2cnc(NC3CCN(S(C)(=O)=O)CC3)nc21` [Compound A, 8-((1R,2R)-2-hydroxy-2-methylcyclopentyl)-2-((1-(methylsulfonyl)piperidin-4-yl)amino)pyrido[2,3-d]pyrimidin-7(8H)-one], for which the IC50 in experiment [2] is 0.037 µM. Further, the “percentage of S phase cells” value is reported as “significantly decreased” in experiment [3] (COV318, control siRNA) and “not significantly decreased” in experiment [3] (COV318, p16 knocked down by siRNA, vs DMSO).
In experiment [6], `CS(=O)(=O)N1CCC(Nc2ncc3c(n2)-c2c(ncn2C2CC2)CC3)CC1` [Example 20, 1-Cyclopropyl-N-(1-(methylsulfonyl)piperidin-4-yl)-4,5-dihydro-1H-imidazo[4,5-h]quinazolin-8-amine] showed an IC50 of at most 0.05 µM.
The same measure, in the same setting: with `CS(=O)(=O)N1CCC(Nc2ncc3c(n2)-c2c(nn(CCO)c2C2CC2)CC3)CC1` [Example 15, 2-(9-Cyclopropyl-2-((1-(methylsulfonyl)piperidin-4-yl)amino)-5,6-dihydro-8H-pyrazolo[3,4-h]quinazolin-8-yl)ethan-1-ol] the figure was at most 0.05 µM; with `Cc1c2c(nn1-c1c(F)cccc1F)CCc1cnc(NC3CCN(S(C)(=O)=O)CC3)nc1-2` [Example 11, 8-(2,6-Difluorophenyl)-9-methyl-N-(1-(methylsulfonyl)piperidin-4-yl)-6,8-dihydro-5H-pyrazolo[3,4-h]quinazolin-2-amine], at most 0.05 µM.
